The target of assay [1] is T1, EP4 receptors (Homo sapiens, UniProt P35408).
T1 construct: expressed in transfected cells; membrane pellet
The experiment in a line: Radioligand binding, [3H]PGE2, EP4 (Ki). The settings on record: HEK-293 cells stably expressing EP4, [3H]PGE2. As to the method:
HEK-293 cells stably expressing the human or feline FP receptor, or EP1, EP2, or EP4 receptors were washed with TME buffer, scraped from the bottom of the flasks, and homogenized for 30 sec using a Brinkman PT 10/35 polytron. TME buffer was added to achieve a final 40 ml volume in the centrifuge tubes (the composition of TME is 100 mM TRIS base, 20 mM MgCl2, […]; 10N HCl is added to achieve a pH of 7.4).
The cell homogenate was centrifuged at 19000 r.p.m. for 20 min at 4° C using a Beckman Ti-60 rotor. The resultant pellet was resuspended in TME buffer to give a final 1 mg/ml protein concentration, as determined by Biorad assay. Radioligand binding competition assays vs. [^3H-]17-phenyl PGF2α. (5 nM) were performed in a 100 μl volume for 60 min. Binding reactions were started by adding plasma membrane fraction. The reaction was terminated by the addition of 4 ml ice-cold TRIS-HCl buffer and rapid filtration through glass fiber GF/B filters using a Brandel cell harvester. The filters were washed 3 times with ice-cold buffer and oven dried for one hour.
[^3H-] PGE2 (specific activity 180 Ci mmol) was used as the radioligand for EP receptors. [^3H] 17-phenyl PGF2α, was employed for FP receptor binding studies. Binding studies employing EP1, EP2, EP4 and FP receptors were performed in duplicate in at least three separate experiments. A 200 μl assay volume was used. Incubations were for 60 min at 25° C. and were terminated by the addition of 4 ml of ice-cold 50 mM TRIS-HCl, followed by rapid filtration through Whatman GF/B filters and three additional 4 ml washes in a cell harvester (Brandel). Competition studies were performed using a final concentration of 5 nM [^3H]-PGE2, or 5 nM [^3H] 17-phenyl PGF2αand non-specific binding determined with 10^−5M of unlabeled PGE2, or 17-phenyl PGF2α, according to receptor subtype studied.

The target in assay [2] is T2, hEP1 (Homo sapiens, UniProt P34995).
T2 construct: expressed in transfected cells
T2 sequence (P34995 1-402): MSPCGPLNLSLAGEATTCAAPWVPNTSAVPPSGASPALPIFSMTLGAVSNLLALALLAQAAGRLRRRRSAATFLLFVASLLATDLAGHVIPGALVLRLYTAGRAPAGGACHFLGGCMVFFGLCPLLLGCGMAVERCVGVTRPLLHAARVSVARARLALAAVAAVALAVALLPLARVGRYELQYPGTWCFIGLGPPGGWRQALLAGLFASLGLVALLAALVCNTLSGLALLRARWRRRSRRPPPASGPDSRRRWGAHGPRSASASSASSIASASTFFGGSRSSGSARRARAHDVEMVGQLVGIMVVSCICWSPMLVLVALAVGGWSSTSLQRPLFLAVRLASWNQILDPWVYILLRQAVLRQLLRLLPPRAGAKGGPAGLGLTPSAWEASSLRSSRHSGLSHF
The experiment in a line: FLIPR calcium signal, EP1. The settings on record: HEK-293(EBNA). The format is cell-based. As to the method: (§1) HEK-293(EBNA) cells, stably expressing one type or subtype of recombinant human prostaglandin receptors (prostaglandin receptors expressed: hDP/Gqs5; hEP1; hEP2/Gqs5; hEP3A/Gqi5; hEP4/Gqs5; hFP; hIP; hTP), were cultured in 100 mm culture dishes in high-glucose DMEM medium containing 10% fetal bovine serum, 2 mM 1-glutamine, 250 μg/ml geneticin (G418) and 200 μg/ml hygromycin B as selection markers, and 100 units/ml penicillin G, 100 μg/ml streptomycin and 0.25 μg/ml amphotericin B.
(§2) Cells were seeded at a density of 5×10^4 cells per well in Biocoat® Poly-D-lysine-coated black-wall, clear-bottom 96-well plates (Becton-Dickinson) and allowed to attach overnight in an incubator at 37° C. Cells were then washed two times with HBSS-HEPES buffer (Hanks Balanced Salt Solution without bicarbonate and phenol red, 20 mM HEPES, pH 7.4) using a Denley Cellwash plate washer (Labsystems). After 45 minutes of dye-loading in the dark, using the calcium-sensitive dye Fluo-4 AM at a final concentration of 2 μM, plates were washed four times with HBSS-HEPES buffer to remove excess dye leaving 100 μl in each well. Plates were re-equilibrated to 37° C. for a few minutes.
(§3) Cells were excited with an Argon laser at 488 nm, and emission was measured through a 510-570 nm bandwidth emission filter (FLIPR™, Molecular Devices, Sunnyvale, Calif.). Drug solution was added in a 50 μl volume to each well to give the desired final concentration. The peak increase in fluorescence intensity was recorded for each well. On each plate, four wells each served as negative (HBSS-HEPES buffer) and positive controls (standard agonists: BW245C (hDP); PGE2 (HEP1; hEP2/Gqs5; hEP3A/Gqi5; hEP4/Gqs5); PGF2α (hFP); carbacyclin (hIP); U-46619 (hTP), depending on receptor). The peak fluorescence change in each drug-containing well was then expressed relative to the controls.
(§4) Compounds were tested in a high-throughput (HTS) or concentration-response (CoRe) format. In the HTS format, forty-four compounds per plate were examined in duplicates at a concentration of 10^−5 M. To generate concentration-response curves, four compounds per plate were tested in duplicates in a concentration range between 10^−5 and 10^−11 M. The duplicate values were averaged. In either, HTS or CoRe format each compound was tested on at least 3 separate plates using cells from different passages to give an n≧3.

Assay [3] has as its target T3, hEP3A/Gqi5 (Homo sapiens, UniProt P43115).
T3 construct: expressed in transfected cells
T3 sequence (P43115 1-390): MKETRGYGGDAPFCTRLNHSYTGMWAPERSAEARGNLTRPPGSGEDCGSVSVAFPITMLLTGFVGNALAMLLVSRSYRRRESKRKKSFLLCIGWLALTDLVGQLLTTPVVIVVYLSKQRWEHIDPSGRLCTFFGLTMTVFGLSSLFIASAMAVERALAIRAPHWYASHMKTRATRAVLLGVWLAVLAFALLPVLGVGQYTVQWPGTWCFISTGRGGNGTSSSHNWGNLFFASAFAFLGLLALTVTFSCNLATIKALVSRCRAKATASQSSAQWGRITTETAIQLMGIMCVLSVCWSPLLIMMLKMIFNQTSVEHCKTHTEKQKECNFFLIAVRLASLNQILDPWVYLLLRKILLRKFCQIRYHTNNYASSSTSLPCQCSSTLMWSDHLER
The experiment in a line: FLIPR calcium signal, EP3. The settings on record: HEK-293(EBNA); for EC50: read-out: Ca2+ Signal-EC50 (nM) EP3. The format is cell-based. As for the experimental part: as §1, §2, §3, §4

Assay [4] addresses T4, hEP4/Gqs5 (Homo sapiens, UniProt P35408).
T4 construct: expressed in transfected cells
The experiment in a line: FLIPR calcium signal, EP4. The settings on record: HEK-293(EBNA); for EC50: read-out: Ca2+ Signal-EC50 (nM) EP4. The class given is cell-based. As to the method: as §1, §2, §3, §4

The target of assay [5] is T5, hIP (Homo sapiens, UniProt P43119).
T5 construct: expressed in transfected cells
The experiment in a line: FLIPR calcium signal, IP. The settings on record: HEK-293(EBNA). The class given is cell-based. As for the experimental part:
as §1, §2, §3, §4

T5 sequence (P43119 whole entry): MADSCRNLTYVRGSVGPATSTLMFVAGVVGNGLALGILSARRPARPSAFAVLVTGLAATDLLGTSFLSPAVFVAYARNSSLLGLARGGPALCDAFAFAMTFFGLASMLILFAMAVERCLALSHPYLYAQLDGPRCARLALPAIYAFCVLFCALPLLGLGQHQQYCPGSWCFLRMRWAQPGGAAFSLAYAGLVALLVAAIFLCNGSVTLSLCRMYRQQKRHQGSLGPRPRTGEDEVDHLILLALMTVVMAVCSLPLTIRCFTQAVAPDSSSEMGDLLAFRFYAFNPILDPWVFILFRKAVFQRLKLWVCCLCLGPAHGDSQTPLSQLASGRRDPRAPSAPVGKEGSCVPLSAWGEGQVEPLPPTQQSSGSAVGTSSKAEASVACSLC
T1 sequence (P35408 whole entry): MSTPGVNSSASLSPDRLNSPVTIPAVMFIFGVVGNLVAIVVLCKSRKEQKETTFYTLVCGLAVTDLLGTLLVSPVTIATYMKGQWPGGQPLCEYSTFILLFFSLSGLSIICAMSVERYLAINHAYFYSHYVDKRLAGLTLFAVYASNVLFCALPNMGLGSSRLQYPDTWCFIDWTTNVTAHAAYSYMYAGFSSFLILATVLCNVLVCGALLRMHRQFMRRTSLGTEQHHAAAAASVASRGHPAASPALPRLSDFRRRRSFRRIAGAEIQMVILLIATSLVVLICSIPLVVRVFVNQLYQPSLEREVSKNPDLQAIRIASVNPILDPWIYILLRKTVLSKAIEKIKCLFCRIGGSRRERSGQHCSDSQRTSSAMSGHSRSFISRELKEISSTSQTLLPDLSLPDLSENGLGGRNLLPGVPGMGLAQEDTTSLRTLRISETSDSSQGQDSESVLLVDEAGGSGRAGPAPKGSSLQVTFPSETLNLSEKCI
T4 sequence (P35408 whole entry): as above

`CCCCCC(O)c1ccc([C@@H]2[C@@H](C/C=C\CCCC(=O)O)[C@H](Cl)C[C@H]2O)cc1` (single isomer, unassigned) [Entry 12]: the Ki in assay [1] is over 10000 nM. In assay [2], the “Ca2+ Signal-EC50 (nM) EP1” value is “not active”. Besides, in assay [3], the “Ca2+ Signal-EC50 (nM) EP3” value is recorded as “not active”. Also, the EC50 in assay [4] was over 10000 nM. Also, the “Ca2+ Signal-EC50 (nM) IP” value in assay [5] is given as “not active”.

`CCCCCC(O)c1ccc([C@@H]2[C@@H](C/C=C\CCCC(=O)O)[C@H](Cl)C[C@H]2O)cc1` (single isomer, unassigned) [Entry 13] came in with a Ki in assay [1] of over 10000 nM. Moreover, the “Ca2+ Signal-EC50 (nM) EP1” value in assay [2] is given as “not active”. Further, the figures for the EC50 in assay [3] and in assay [4] were 3000 nM and over 10000 nM, respectively. In assay [5], the “Ca2+ Signal-EC50 (nM) IP” value was “not active”.

Turning to `CCCCCC(O)c1ccc([C@@H]2[C@@H](CCCc3ccc(C(=O)O)s3)[C@H](Cl)C[C@H]2O)cc1` (stereo partly drawn) [Entry 2, 5-(3-{(1R,2S,3R,5R)-5-Chloro-3-hydroxy-2-[4-(1-hydroxy-hexyl)-phenyl]-cyclopentyl}-propyl)-thiophene-2-carboxylic acid], in assay [1], the affinity corresponds to a Ki of 3020 nM. Moreover, the EC50 is 664 nM in assay [2] (read-out: Ca2+ Signal-EC50 (nM) EP1) and 348 nM in assay [3]. Besides, the “Ca2+ Signal-EC50 (nM) EP4” value in assay [4] is recorded as “not active”. Also, the “Ca2+ Signal-EC50 (nM) IP” value in assay [5] is reported as “not active”.

Compound `CCCC1(C(O)c2cccc([C@@H]3[C@@H](Cc4cccc(CCC(=O)O)c4)[C@H](Cl)C[C@H]3O)c2)CCC1` (stereo partly drawn) [Entry 4, 3-[3-((1R,2S,3R,5R)-5-Chloro-3-hydroxy-2-{3-[hydroxy-(1-propyl-cyclobutyl)-methyl]-phenyl}-cyclopentylmethyl)-phenyl]-propionic acid] gave a Ki in assay [1] of over 10000 nM. In addition, the “Ca2+ Signal-EC50 (nM) EP1” value in assay [2] is “not active”. The “Ca2+ Signal-EC50 (nM) EP3” value in assay [3] is listed as “not active”. In assay [4], the EC50 was over 10000 nM. Also, the “Ca2+ Signal-EC50 (nM) IP” value in assay [5] is “not active”.

In turn, `CCCCCC(O)c1ccc([C@@H]2[C@@H](C/C=C\CCCC(=O)O)[C@@H](Cl)C[C@H]2O)cc1` (stereo partly drawn) [Entry 9, (Z)-7-{(1R,2S,3R,5S)-5-Chloro-3-hydroxy-2-[4-(1-hydroxy-hexyl)-phenyl]-cyclopentyl}-hept-5-enoic acid] returned a Ki in assay [1] of 4590 nM. Also, the “Ca2+ Signal-EC50 (nM) EP1” value in assay [2] is on record as “not active”. Moreover, the EC50 in assay [3] was 7230 nM; in assay [4], 947 nM; in assay [5] (read-out: Ca2+ Signal-EC50 (nM) IP), 6880 nM.

In turn, `CCCCCC(O)c1ccc([C@@H]2[C@@H](CCCCCCC(=O)O)[C@H](Cl)C[C@H]2O)cc1` (stereo partly drawn) [Entry 14, 7-{(1R,2S,3R,5R)-5-Chloro-3-hydroxy-2-[4-(1-hydroxy-hexyl)-phenyl]-cyclopentyl}-heptanoic acid] registered a Ki in assay [1] of 8610 nM. Moreover, the “Ca2+ Signal-EC50 (nM) EP1” value in assay [2] is on record as “not active”. The figures for the EC50 in assay [3] and in assay [4] were 477 nM and over 10000 nM, respectively. In assay [5], the “Ca2+ Signal-EC50 (nM) IP” value is recorded as “not active”.

Consider `O=C(O)CCC/C=C\C[C@@H]1[C@@H](c2ccc(C(O)CCC3CCCCC3)cc2)[C@H](O)C[C@H]1Cl` (stereo partly drawn) [Entry 15, (Z)-7-{(1R,2S,3R,5R)-5-Chloro-2-[4-(3-cyclohexyl-1-hydroxy-propyl)-phenyl]-3-hydroxy-cyclopentyl}-hept-5-enoic acid], for which affinity in assay [1] was put at a Ki of 3810 nM. In addition, the “Ca2+ Signal-EC50 (nM) EP1” value in assay [2] is “not active”. Also, the EC50 in assay [3] was 2220 nM. Also, the “Ca2+ Signal-EC50 (nM) EP4” value in assay [4] is “not active”. Further, the “Ca2+ Signal-EC50 (nM) IP” value in assay [5] was “not active”.

The compound `O=C(O)CCCCCC[C@@H]1[C@@H](c2ccc(C(O)CCC3CCCCC3)cc2)[C@H](O)C[C@H]1Cl` (stereo partly drawn) [Entry 16, 7-{(1R,2S,3R,5R)-5-Chloro-2-[4-(3-cyclohexyl-1-hydroxy-propyl)-phenyl]-3-hydroxy-cyclopentyl}-heptanoic acid] yielded a Ki in assay [1] of 5580 nM. Besides, the “Ca2+ Signal-EC50 (nM) EP1” value in assay [2] is “not active”. In assay [3], the EC50 is 1710 nM. Further, in assay [4], the “Ca2+ Signal-EC50 (nM) EP4” value is reported as “not active”. Moreover, the “Ca2+ Signal-EC50 (nM) IP” value in assay [5] is on record as “not active”.

Usually Ki stands for a measure of affinity in units of concentration, obtained from inhibition or displacement. The term EC50 denotes the concentration needed to bring the measured effect to its halfway point.

Source of the values: patent US7585895B2, “Therapeutic substituted cyclopentanes” (Allergan, Inc., priority 2005, dated 2009).
